# Test: in vitro
# Conditions: human, hek293t cells
row,Compound,"viability at 48 h, 25 µM [%]"
1,"CC(Cl)C(=O)Nc1ccc(C(=O)N(C)C2CCCN(C)C2)cc1 (stereo not drawn) [7-I20, 4-(2-chloropropanamido)-N-methyl-N-(1-methylpiperidin-3-yl)benzamide]",76.4
2,"CN(CC(=O)Nc1ccc(F)cc1)C(=O)CCl [4-B05, 2-chloro-N-{[(4-fluorophenyl)carbamoyl]methyl}-N-methylacetamide]",0.41
3,"CCN(Cc1ccc2c(c1)OCO2)C(=O)CCl [5-L07, N-[(1,3-dioxaindan-5-yl)methyl]-2-chloro-N-ethylacetamide]",0.477
4,"CCc1cccc2c(C(=O)CCl)c[nH]c12 [10-C12, 2-chloro-1-(7-ethyl-1H-indol-3-yl)ethan-1-one]",0.148
5,"CC(Cl)C(=O)NC(C)c1ccc(C(F)(F)F)nc1Cl (stereo not drawn) [7-G09, 2-chloro-N-{1-[2-chloro-6-(trifluoromethyl)pyridin-3-yl]ethyl}propanamide]",83.5
6,"CC1CCCC(NC(=O)C(C#N)=Cc2ccccc2)C1C (stereo not drawn) [8-C19, 2-cyano-N-(2,3-dimethylcyclohexyl)-3-phenylprop-2-enamide]",27.3
7,"Cc1nc2cc(=O)[nH]n2c(C)c1CNC(=O)C(C)Cl (stereo not drawn) [7-B07, 2-chloro-N-({5,7-dimethyl-2-oxo-1H,2H-pyrazolo[1,5-a]pyrimidin-6-yl}methyl)propanamide]",96.1
8,"O=C(CCl)c1ccc(NC(=O)c2ccccc2)cc1 [10-B06, N-[4-(2-chloroacetyl)phenyl]benzamide]",1.37
9,"CC(=O)NCCc1ccc(C(=O)CCl)cc1 [10-N03, N-{2-[4-(2-chloroacetyl)phenyl]ethyl}acetamide]",85.6
10,"C=CC(=O)NCC1CSCCS1 (stereo not drawn) [1-K07, N-[(1,4-dithian-2-yl)methyl]prop-2-enamide]",78.1
11,"C=CC(=O)Nc1ncc(-c2cccc(C)c2)s1 [1-P14, N-[5-(3-methylphenyl)-1,3-thiazol-2-yl]prop-2-enamide]",63.6
12,"C=CC(=O)NC1(c2ccccc2)CCOC1 (stereo not drawn) [3-P04, N-(3-phenyloxolan-3-yl)prop-2-enamide]",89.3
13,"CC(C)NC(=O)C(C#N)=Cc1cccc(C(F)(F)F)c1 [9-J13, 2-cyano-N-(propan-2-yl)-3-[3-(trifluoromethyl)phenyl]prop-2-enamide]",33.9
14,"C=CC(=O)NCc1nc2cc(F)ccc2o1 [3-N20, N-[(5-fluoro-1,3-benzoxazol-2-yl)methyl]prop-2-enamide]",84.7
15,"C=CC(=O)NC(C)(C)c1nc(-c2ccccc2F)c(C)s1 [1-H04, N-{2-[4-(2-fluorophenyl)-5-methyl-1,3-thiazol-2-yl]propan-2-yl}prop-2-enamide]",73.5
16,"N#CC(=Cc1cccc(-c2ccncc2)c1)C(=O)NCc1ccco1 [9-B06, 2-cyano-N-[(furan-2-yl)methyl]-3-[3-(pyridin-4-yl)phenyl]prop-2-enamide]",68.2
17,"Cc1ccc(NC(=O)CCl)cc1S(=O)(=O)N(C)C [4-A09, 2-chloro-N-[3-(dimethylsulfamoyl)-4-methylphenyl]acetamide]",-0.165
18,"CN(C)CCN1C(=O)C=CC1=O [10-G11, 1-[2-(dimethylamino)ethyl]-2,5-dihydro-1H-pyrrole-2,5-dione]",96.9
19,"C=CC(=O)N(C)CC(=O)N1CCC(c2nc(-c3ccccc3)n[nH]2)CC1 [2-H20, N-methyl-N-{2-oxo-2-[4-(3-phenyl-1H-1,2,4-triazol-5-yl)piperidin-1-yl]ethyl}prop-2-enamide]",67.6
20,"Cc1cc(C(=O)CCl)c(C)n1-c1cccc([N+](=O)[O-])c1 [10-B16, 2-chloro-1-[2,5-dimethyl-1-(3-nitrophenyl)-1H-pyrrol-3-yl]ethan-1-one]",0.976
21,"COc1ccc(CCN2C(=O)C=CC2=O)cc1 [10-A05, 1-[2-(4-methoxyphenyl)ethyl]-2,5-dihydro-1H-pyrrole-2,5-dione]",5.85
22,"N#CC(=Cc1ccccc1Cl)C(=O)Nc1ccc(Cl)cc1 [8-B11, 3-(2-chlorophenyl)-N-(4-chlorophenyl)-2-cyanoprop-2-enamide]",113
23,"C=CC(=O)N(Cc1cc2ccccn2n1)CC1(O)CCCCC1 [1-H15, N-[(1-hydroxycyclohexyl)methyl]-N-({pyrazolo[1,5-a]pyridin-2-yl}methyl)prop-2-enamide]",102
24,"CC(Cl)C(=O)NC1COCc2ccccc21 (stereo not drawn) [6-B05, 2-chloro-N-(3,4-dihydro-1H-2-benzopyran-4-yl)propanamide]",106
25,"C=CC(=O)Nc1ccc2ccn(CCN(C)C)c2c1 [1-L21, N-{1-[2-(dimethylamino)ethyl]-1H-indol-6-yl}prop-2-enamide]",113
26,"N#CC(=Cc1c(F)cccc1F)C(=O)Nc1ccccc1F [9-J12, 2-cyano-3-(2,6-difluorophenyl)-N-(2-fluorophenyl)prop-2-enamide]",103
27,"CC(=O)Nc1ccc(C=C(C#N)C(=O)Nc2ccccc2Cl)cc1 [8-M11, N-(2-chlorophenyl)-2-cyano-3-(4-acetamidophenyl)prop-2-enamide]",86.4

row,Compound,"viability at 48 h, 25 µM [%]"
1,"C=CC(=O)N(C[C@H]1CCCO1)C1CCC(CC)CC1 (stereo partly drawn) [1-D03, N-(4-ethylcyclohexyl)-N-{[(2R)-oxolan-2-yl]methyl}prop-2-enamide]",94.6
2,"C=CC(=O)Nc1ccc(Cl)cc1F [1-I10, N-(4-chloro-2-fluorophenyl)prop-2-enamide]",47.1
3,"O=C(CCl)N(Cc1ccc(F)cc1)C1CCCCC1 [4-I13, 2-chloro-N-cyclohexyl-N-[(4-fluorophenyl)methyl]acetamide]",0.726
4,"CC(Cl)C(=O)N1CCc2sccc2C1c1cccs1 (stereo not drawn) [7-K07, 2-chloro-1-[4-(thiophen-2-yl)-4H,5H,6H,7H-thieno[3,2-c]pyridin-5-yl]propan-1-one]",87.1
5,"Cc1cc(C)c(NC(=O)C(C#N)=Cc2ccc(C(C)(C)C)cc2)c(C)c1 [8-I13, 3-(4-tert-butylphenyl)-2-cyano-N-(2,4,6-trimethylphenyl)prop-2-enamide]",9.25
6,"N#CC(=Cc1ccc(O)cc1)C(=O)NCc1ccc(Cl)cc1 [8-B16, N-[(4-chlorophenyl)methyl]-2-cyano-3-(4-hydroxyphenyl)prop-2-enamide]",102
7,"N#CC(=Cc1sc2ccccc2c1Cl)C(=O)Nc1nccs1 [9-F15, 3-(3-chloro-1-benzothiophen-2-yl)-2-cyano-N-(1,3-thiazol-2-yl)prop-2-enamide]",117
8,"C=CC(=O)N1CCN(C(=O)c2ccco2)CC1 [1-P11, 1-[4-(furan-2-carbonyl)piperazin-1-yl]prop-2-en-1-one]",88.3
9,"O=C(Nc1nccs1)N1CCSSCC1 [10-O22, N-(1,3-thiazol-2-yl)-1,2,5-dithiazepane-5-carboxamide]",113
10,"N#CC(=CC(Cl)=Cc1ccccc1)C(=O)NC1CCCCC1 [8-D17, 4-chloro-2-cyano-N-cyclohexyl-5-phenylpenta-2,4-dienamide]",7.44
11,"CCn1cc(N2C(=O)C=CC2=O)cn1 [10-I21, 1-(1-ethyl-1H-pyrazol-4-yl)-2,5-dihydro-1H-pyrrole-2,5-dione]",38.5
12,"CCCCNC(=O)C(C#N)=Cc1cccc(Cl)c1Cl [9-H11, N-butyl-2-cyano-3-(2,3-dichlorophenyl)prop-2-enamide]",24.1
13,"O=C(CCl)N[C@H]1CCN(S(=O)(=O)c2ccccc2)C1 [7-P16, N-[(3S)-1-(benzenesulfonyl)pyrrolidin-3-yl]-2-chloroacetamide]",0.479
14,"O=C(CCl)N1N=C(c2cccs2)CC1c1ccccc1O (stereo not drawn) [4-K20, 2-chloro-1-[5-(2-hydroxyphenyl)-3-(thiophen-2-yl)-4,5-dihydro-1H-pyrazol-1-yl]ethan-1-one]",-0.22
15,"O=C1C=CC(=O)N1c1ccc(OC(F)F)cc1 [10-P11, 1-[4-(difluoromethoxy)phenyl]-2,5-dihydro-1H-pyrrole-2,5-dione]",102
16,"Cc1cc(C(=O)CCl)c(C)n1CCc1cccs1 [10-F16, 2-chloro-1-{2,5-dimethyl-1-[2-(thiophen-2-yl)ethyl]-1H-pyrrol-3-yl}ethan-1-one]",0.304
17,"Cc1nn(C)c(C)c1NC(=O)C(C)Cl (stereo not drawn) [6-C07, 2-chloro-N-(1,3,5-trimethyl-1H-pyrazol-4-yl)propanamide]",116
18,"O=C(CCl)N(Cc1cccs1)C1CCS(=O)(=O)C1 (stereo not drawn) [4-L12, 2-chloro-N-(1,1-dioxo-1lambda6-thiolan-3-yl)-N-[(thiophen-2-yl)methyl]acetamide]",1.65
19,"O=C(CCl)N(Cc1ccccc1)c1ccccc1 [4-G13, N-benzyl-2-chloro-N-phenylacetamide]",1.23
20,"O=C(CCl)Nc1ccc(Oc2ccccc2)cc1 [4-J09, 2-chloro-N-(4-phenoxyphenyl)acetamide]",-0.178
21,"CCOc1ccc(NC(=O)CCl)cc1S(=O)(=O)N1CCCC1 [4-J16, 2-chloro-N-[4-ethoxy-3-(pyrrolidine-1-sulfonyl)phenyl]acetamide]",1.41
22,"O=C(CCl)Nc1ccc(S(=O)(=O)C(F)F)cc1 [4-N16, 2-chloro-N-(4-difluoromethanesulfonylphenyl)acetamide]",0.598
23,"N#CC(=Cc1cccc(O)c1)C(=O)NCCc1ccccc1 [8-N03, 2-cyano-3-(3-hydroxyphenyl)-N-(2-phenylethyl)prop-2-enamide]",101
24,"C=CC(=O)N1Cc2c(C(=O)O)cnn2CC1C (stereo not drawn) [3-N18, 6-methyl-5-(prop-2-enoyl)-4H,5H,6H,7H-pyrazolo[1,5-a]pyrazine-3-carboxylic acid]",87
25,"CSc1cccc(-n2c(C)cc(C(=O)CCl)c2C)c1 [10-J16, 2-chloro-1-{2,5-dimethyl-1-[3-(methylsulfanyl)phenyl]-1H-pyrrol-3-yl}ethan-1-one]",0.898
26,"Cc1ccc(C(=O)C(C)Cl)cc1 (stereo not drawn) [10-F20, 2-chloro-1-(4-methylphenyl)propan-1-one]",80.5
27,"CC(Cl)C(=O)NCc1ccc(C(=O)Nc2ccc(F)cc2)cc1 (stereo not drawn) [7-G19, 4-[(2-chloropropanamido)methyl]-N-(4-fluorophenyl)benzamide]",76.3
